Source: patent EP3461488A1, “COMBINATION OF A DBAIT MOLECULE AND A HDAC INHIBITOR FOR TREATING CANCER” (ONXEO, priority 2017, dated 2019)
Like-named read-outs stand apart in the source and are kept apart here.

Experiments:
[1] = test system: non-tumor mammary cell line MCF-10A; experiment: XTT cell survival assay, non-tumor cells MCF-10A; conditions: same drug doses as MDA-MB-231, 7 days after treatment, result in words
Description: (§1) Cell cultures were performed with the triple negative breast cancer cell line MDA-MB-231, the histiocytic lymphoma cell line U937 and the non-tumor mammary cell line MCF-10A. Cells were grown according to the supplier's instructions. Cell lines were maintained at 37°C in a humidified atmosphere at 5% CO2, except the MDA-MB-231 cell line which was maintained at 0% CO2.
(§2) In a first step, the characterization of the effect of drugs monotherapy on cell survival (tumour and non-tumour cells) was performed. MDA-MB-231 (5.10^3 cells/well), MCF-10A (5.10^3 cells/well) and U937 (2.10^4 cells/well) were seeded in 96 well-plates and incubated 24 hours at +37°C before drug addition with increasing concentrations for 4 to 7 days. Following drug exposure, cell survival was measured using the XTT assay (Sigma Aldrich). Briefly, the XTT solution was added directly to each well containing cell culture and the cells incubated for 4 to 24 hours at 37°C before reading the absorbance at 490 nm and 690 nm using a microplate reader (BMG Fluostar, Galaxy). Cell survival was calculated as the ratio of living treated cells to living mock-treated cells. The IC50 (which represents the dose at which 50% of the cells are viable) was calculated by a non-linear regression model using GraphPad Prism software (version 5.04) by plotting the percentage viability against the Log of the drug concentration on each cell line.
(§3) In a second step, analysis and quantification of the drug combination efficacy were performed. Cells were seeded in 96-well plates at the appropriate densities and treated with AsiDNA and/or the HDAC inhibitor (HDACi) belinostat simultaneously during 4 to 7days.
In a first step, the characterization of the effect of drugs monotherapy on cell survival (tumour and non-tumour cells) was performed. MDA-MB-231 (5.10^3 cells/well), MCF-10A (5.10^3 cells/well) and U937 (2.10^4 cells/well) were seeded in 96 well-plates and incubated 24 hours at +37°C before drug addition with increasing concentrations for 4 to 7 days. Following drug exposure, cell survival was measured using the XTT assay (Sigma Aldrich). Briefly, the XTT solution was added directly to each well containing cell culture and the cells incubated for 4 to 24 hours at 37°C before reading the absorbance at 490 nm and 690 nm using a microplate reader (BMG Fluostar, Galaxy). Cell survival was calculated as the ratio of living treated cells to living mock-treated cells. […] In a second step, analysis and quantification of the drug combination efficacy were performed. […] Cell survival was measured using the XTT assay (see above). Combination efficacy was evaluated by "the combination index (CI)" which was determined using the CalcuSyn software tool based on the Chou Talalay method. […]

[2] = test system: triple negative breast cancer cell line MDA-MB-231; experiment: XTT cell survival assay and combination index analysis, MDA-MB-231; type: cell-based; conditions: Homo sapiens
Description: Cells were grown according to the supplier's instructions.
In a first step, the characterization of the effect of drugs monotherapy on cell survival (tumour and non-tumour cells) was performed. […] Following drug exposure, cell survival was measured using the XTT assay (Sigma Aldrich). […] Cell survival was calculated as the ratio of living treated cells to living mock-treated cells.
as §3
Combination efficacy was evaluated by "the combination index (CI)" which was determined using the CalcuSyn software tool based on the Chou Talalay method). […] Note that we define synergism as a more than expected additive effect, and antagonism as a less than expected additive effect.
In a first step, the characterization of the effect of drugs monotherapy on cell survival (tumour and non-tumour cells) was performed. […] Following drug exposure, cell survival was measured using the XTT assay (Sigma Aldrich). […] Cell survival was calculated as the ratio of living treated cells to living mock-treated cells. […] In a second step, analysis and quantification of the drug combination efficacy were performed. […] Cell survival was measured using the XTT assay (see above). Combination efficacy was evaluated by "the combination index (CI)" which was determined using the CalcuSyn software tool based on the Chou Talalay method. […]
In a first step, characterization of the effect of drugs monotherapy on cell survival (tumour and non-tumour cells) was performed. […] Following drug exposure, cell survival was measured using the XTT assay (Sigma Aldrich). […] Cell survival was calculated as the ratio of living treated cells to living mock-treated cells. […] In a second step, analysis and quantification of the drug combination efficacy were performed. […] Cell survival was measured using the XTT assay (see above). […]

[3] = test system: histiocytic lymphoma cell line U937; experiment: XTT cell survival assay and combination index analysis, U937; type: cell-based; conditions: Homo sapiens, U-937
Description: as §1, §2

[4] = XTT assay, monotherapy, increasing concentrations for 4 to 7 days, dose at which 50% of the cells are viable, read-out: IC50
[5] = U937, XTT assay, monotherapy, increasing concentrations for 4 to 7 days, dose at which 50% of the cells are viable, read-out: IC50

O=C(CCCCCCC(=O)Nc1ccccc1)NO [Vorinostat, N-hydroxy-N'-phenyloctanediamide]
cell survival of non-tumor cells (sensitivity) [1]: showed a sensitivity

O=C(/C=C/c1cccc(S(=O)(=O)Nc2ccccc2)c1)NO [Belinostat, (2E)-N-hydroxy-3-[3-(phenylsulfamoyl)phenyl]prop-2-enamide]
IC50 [2, 4]: 250 nM | IC50 [3, 5]: 250 nM | cell survival of non-tumor cells (sensitivity) [1]: insensitive

C/C=C1\NC(=O)[C@H]2CSSCC/C=C/[C@H](CC(=O)N[C@H](C(C)C)C(=O)N2)OC(=O)[C@H](C(C)C)NC1=O [Romidepsin]
IC50 [2]: 0.4 nM | IC50 [3]: 1 nM | cell survival of non-tumor cells (sensitivity) [1]: showed a sensitivity

Nc1ccccc1NC(=O)c1ccc(CNC(=O)OCc2cccnc2)cc1 [Entinostat]
IC50 [2, 4]: 100 nM | IC50 [3, 5]: 10 nM | cell survival of non-tumor cells (sensitivity) [1]: insensitive
